According to the supplement of paper PMC11451515:

How the values were obtained:
Assay in all cases: AUC of viability dose-response curve (% viability x log10 dose units); higher = less sensitive
Settings in all cases: 48 h
NOMO1 = system: NOMO1
In short: (§1)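 In 1536-well plates, leukemia cells adapted to each medium (500 or 1000 cells/well) were exposed for 48 h at 37°C to library compounds in DMSO across 11 threefold doses, 47 μM down to 0.79 nM. Viability was read by CellTiter-Glo One luminescence and normalised per plate to DMSO and cell-free wells. A four-parameter log-logistic fit over log10 doses was integrated by trapezoidal rule. This yielded the area under the curve, with over-full-viability curves scaled and quality-control failures dropped.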

P12-Ichikawa = system: P12-Ichikawa
In short: as §1

SEM cells = system: SEM cells
In short: as §1

[1] = RPMI 5 mM glucose + 10% dialyzed FBS

Row | SMILES | AUC of viability dose-response curve (NOMO1; HPLM + 10% dialyzed FBS) | AUC of viability dose-response curve (NOMO1; RPMI 5 mM glucose + 10% FBS) | AUC of viability dose-response curve (NOMO1; [1]) | AUC of viability dose-response curve (P12-Ichikawa; HPLM + 10% dialyzed FBS) | AUC of viability dose-response curve (P12-Ichikawa; RPMI 5 mM glucose + 10% FBS) | AUC of viability dose-response curve (P12-Ichikawa; [1]) | AUC of viability dose-response curve (SEM cells; HPLM + 10% dialyzed FBS) | AUC of viability dose-response curve (SEM cells; RPMI 5 mM glucose + 10% FBS) | AUC of viability dose-response curve (SEM cells; [1])
1 | C[C@@H]1CC[C@@]2(CC[C@]3(C)\C(=C/C[C@@H]4[C@@]5(C)C[C@@H](O)[C@H](O)[C@@](C)(CO)[C@@H]5CC[C@@]34C)[C@@H]2[C@H]1C)C(O)=O | 446 | 445 | 468 | 468 | 472 | 460 | 385 | 455 | 295
2 | CC(C)[C@H]1C(=O)N[C@H](CO)Cc2c[nH]c3cccc(c23)N1C | 393 | 404 | 405 | 446 | 411 | 401 | 396 | 379 | 442
3 | CC1=CC/2=C(C=C1C)N(C[C@@H](O)[C@@H](O)[C@@H](O)CO)C/3=N/C(=O)NC(=O)C3=N2 | 462 | 472 | 460 | 458 | 449 | 451 | 474 | 428 | 474
4 | NC[C@H](O)c1ccc(O)c(O)c1 | 411 | 452 | 427 | 460 | 457 | 439 | 443 | 453 | 456
5 | C[C@]12CC[C@H]3[C@@H](CC[C@@]45O[C@@H]4C(O)=C(C#N)C[C@]35C)[C@@H]1CC[C@@H]2O | 457 | 458 | 456 | 454 | 454 | 454 | 446 | 363 | 416
6 | Cc1cc(/C=c2/sc3nc4ccccc4n3c2=O)c(C)n1-c1ccccc1 | 472 | 455 | 472 | 471 | 476 | 467 | 473 | 466 | 473
7 | CCCC[S+](=N)([O-])CCC(N)C(=O)O (configuration not stated) | 441 | 462 | 461 | 453 | 469 | 465 | 459 | 462 | 458
8 | COc1cc(N2CCN(C)CC2)ccc1Nc1nc(N)c(C(=O)c2c(Cl)cccc2Cl)s1 | 456 | 467 | 467 | 457 | 454 | 456 | 425 | 422 | 444
9 | c1ccc2c(CN3CCNCC3)cccc2c1 | 462 | 455 | 456 |  |  |  | 465 | 473 | 454
10 | CCC[C@H](Nc1nc(-c2ccc(NC(=O)NCC)c(OC)c2)ncc1C)c1cccnc1 | 287 | 251 | 251 | 195 | 194 | 205 |  |  | 
11 | CC(=O)N(O)CCCCCNC(=O)CCC(=O)N(O)CCCCCNC(=O)CCC(=O)N(O)CCCCCN.C[S+](=O)([O-])O | 204 | 199 | 261 | 115 | 225 | 249 |  |  | 
12 | COc1cc2cc(c1Cl)N(C)C(=O)C[C@H](OC(=O)C(C)C)[C@]1(C)O[C@@H]1[C@H](C)[C@@H]1C[C@@](O)(NC(=O)O1)[C@H](OC)/C=C/C=C(\C)C2 |  |  |  | 37.9 | 42.6 | 59.7 | 66.3 | 51.6 | 49.3
13 | CC(C)C[C@H](CC(=O)O)C(=O)N[C@@H](Cc1c[nH]c2ccccc12)C(=O)N[C@@H](C)c1ccccc1 | 428 | 446 | 465 | 413 | 419 | 421 |  |  | 
14 | C/C=C(\C)C(=O)N[C@@H](c1ccccc1)[C@@H](O)C(=O)O[C@H]1C[C@@]2(O)[C@@H](OC(=O)c3ccccc3)[C@@H]3[C@]4(OC(C)=O)CO[C@@H]4C[C@H](O)[C@@]3(C)C(=O)[C@H](OC(C)=O)C(=C1C)C2(C)C |  |  |  | 102 | 85.3 | 130 | 104 | 85.3 | 87.7
15 | N#CC1(c2cccc(C(=O)Nc3cc(Oc4ccc5nc(NC(=O)C6CC6)sc5n4)ccc3F)c2Cl)CC1 | 344 | 370 | 327 | 372 | 362 | 369 |  |  | 
16 | CC(=O)OCC(=O)[C@@]1(O)CC[C@H]2[C@@H]3CCC/4=C/C(=O)/C=C\[C@]4(C)[C@H]3[C@@H](O)C[C@]12C | 439 | 450 | 472 |  |  |  | 383 | 425 | 428
17 | CCC(=O)NC[C@H](Cc1ccc(OCCc2nc(-c3ccccc3)oc2C)cc1)N/C(C)=C\C(=O)c1ccc(C(F)(F)F)cc1 | 433 | 438 | 462 | 410 | 406 | 398 |  |  | 
18 | COc1c(N2C[C@@H]3CCCN[C@@H]3C2)c(F)cc2c(=O)c(C(=O)O)cn(C3CC3)c12.Cl.O | 390 | 456 | 437 | 434 | 394 | 399 |  |  | 
